Reference: patent US5369120A, “Pharmaceutical composition of 7-((substituted)amino-8-((substituted)carbonyl)-(methylamino)-1-oxasp iro(4,5)decanes and L-dopa” (Warner-Lambert Company, priority 1993, dated 1994)

Test system: rats rendered Parkinsonian by injection of reserpine
Assay: locomotor activity and rigidity in reserpine-treated Parkinsonian rats
Assay type: in vivo, rat
Settings: reserpine (4 mg/kg) rats; L-DOPA 80 mg/kg intraperitoneal, subthreshold dose

Compound: N[C@@H](Cc1ccc(O)c(O)c1)C(=O)O [L-DOPA, 3-(3,4-dihydroxyphenyl)L-alanine]
- Locomotor scores: very low locomotor scores
